Results on one compound are retold here after patent publication US20220296623A1, “REDUCED NICOTINAMIDERIBOSIDES FOR TREATING OR PREVENTING KIDNEY DISEASE” (SOCIETE DES PRODUITS NESTLE S.A., priority 2019, published 2022).

Data set [1] relates to NAD+ levels in liver, skeletal muscle and kidney. As to the kind of experiment: Tissue NAD+ levels after oral gavage of NR or NRH. In kind it is in vivo, C57BI/6NTac mice. As to the method:
8 week-old C57BI/6NTac mice were orally gavaged with either saline (as vehicle), NR (500 mg/kg) or NRH (500 mg/kg). After 1 hour, liver, skeletal muscle and kidney NAD^+ levels were evaluated. All results are expressed as mean +/−SEM of n=5 mice per group. * indicates statistical difference at p<0.05 vs. vs. saline-treated mice. # indicates statistical difference at p<0.05 vs. NR treated mice.
(§1) Oral administration of NRH led to very similar results to those observed after IP administration. […] In contrast, NR levels were undetectable at 1 h after NR administration. As expected, NR treatment led to large increases in circulating NAM, which where ˜4-fold higher than those observed after NRH treatment.

In a further data set the test system is 3T3 fibroblasts. As to the kind of experiment: NAD+ levels in 3T3 fibroblasts after NRH treatment. In kind it is cell-based. Here is the method: The ability of NRH to potently increase NAD+ was tested as well in other cell type models.
The subject of the next data set is NMNAT. Briefly: NRH-induced NAD+ synthesis under NMNAT inhibition with gallotannin. In kind it is cell-based. An excerpt:
As a follow-up step, NMNAT enzymes could catalyze the transition from NMNH to NADH.

Data set [2] relates to NAD+ levels in liver, muscle and kidney. As to the kind of experiment: Tissue NAD+ levels after intraperitoneal injection of NR or NRH. In kind it is in vivo, mice. As to conditions: IP 500 mg/kg, after 1 h. Here is the method:
The above results prompted us to test whether NRH could act as an effective NAD+ precursor in vivo. For this, we first intraperitoneally (IP) injected mice with either NR or NRH (500 mg/kg).

On the set-up of data set [3]: species or system mice. As to conditions: mouse, in vivo, po.
From the text: (§2) Levels of NRH and other NAD-related metabolites in biological samples were obtained by using a cold liquid-liquid extraction using a mixture of methanol:water:chloroform in 5:3:5 (v/v), from which the polar phase was recovered for hydrophilic interaction ultra-high performance liquid chromatography mass spectrometry (UHPLC-MS) analysis. The UHPLC consisted of a binary pump, a cooled autosampler, and a column oven (DIONEX Ultimate 3000 UHPLC+ Focused, Thermo Scientific), connected to a triple quadrupole spectrometer (TSQ Vantage, Thermo Scientific) equipped with a heated electrospray ionisation (H-ESI) source. Of each sample, 2 μL were injected into the analytical column (2.1 mm×150 mm, 5 μm pore size, 200 Å HILICON iHILIC®-Fusion(P)), guarded by a pre-column (2.1 mm×20 mm, 200 Å HILICON iHILIC®-Fusion(P) Guard Kit) operating at 35° C. The mobile phase (10 mM ammonium acetate at pH 9, A, and acetonitrile, B) was pumped at 0.25 mL/min flow rate over a linear gradient of decreasing organic solvent (0.5-16 min, 90-25% B), followed by re-equilibration for a total run time of 30 min. The MS operated in positive mode at 3500 V with multiple reaction monitoring (MRM). The software Xcalibur v4.1.31.9 (Thermo Scientific) was used for instrument control, data acquisition and processing. Retention time and mass detection was confirmed by authentic standards.
as §1

A further data set deals with AML12 hepatocytes. Briefly: Intracellular NAD+ levels in AML12 hepatocytes after NRH or NR treatment (dose-response, time course). The format is cell-based.
From the text: as §2
Even at such relatively low dose, NRH achieved similar increases in intracellular NAD+ levels to those reached with NR at 50-fold higher concentrations.
NRH actions were also extremely fast (FIG. 3), as significant increases in NAD+ levels were observed within 5 minutes after NRH treatment.

Data set [4] can be described thus: Stability in FBS supplemented media. In kind it is in vitro ADME. An excerpt: NR degradation to NAM has been proposed as a limitation for its pharmacological efficacy. To evaluate whether NRH was also susceptible to degradation to NAM, we spiked NRH or NR in isolated mouse plasma. […] We also tested the stability of NRH in other matrixes.
Data set [5] deals with NRH-induced NAD+ Synthesis. Briefly: Intracellular NAD-related metabolites after NRH or NR treatment. In kind it is cell-based.
From the text: as §2, with “standards. […]” for “standards.”

“Also recorded” adds a separate entry of the source.

Take `NC(=O)C1=CN([C@@H]2O[C@H](CO)[C@@H](O)[C@H]2O)C=CC1` [NRH, dihydro-1-beta-D-ribofuranosyl-3-pyridinecarboxamide]: the “effect on hepatic NAD+ levels” value in data set [1] (oral administration, compared with NR) is on record as “more potent effect on hepatic NAD+ levels than NR”. Further, the “NAD+ precursor activity in liver, muscle and kidney” value in data set [1] (oral gavage 500 mg/kg, after 1 hour (FIG. 5)) is “orally active NAD+ precursor in liver, muscle and kidney”. The “NAD+ levels” value with 3T3 fibroblasts is listed as “highly elevated NAD+ levels”. Further, the “NAD+ synthesis after NRH treatment in presence of gallotannin” value in the data set with NMNAT (NRH at maximal doses (0.5 mM)) is “largely compromised NAD+ synthesis; also recorded: part of the NRH action remained”. The “NRH action in presence of gallotannin” value with NMNAT (NRH at submaximal doses) is “totally blocked by gallotannin”. In data set [2], the “NAD+ levels in kidney” value is listed as “increased NAD+ levels”, the “NAD+ levels in liver” value is listed as “increased NAD+ levels” and the “NAD+ levels in muscle” value is reported as “increased NAD+ levels”. Also, in data set [3], the “NRH concentration in plasma” value amounted to 11.16 ± 1.74 µM and the “administered compound in plasma” value was “detectable in plasma”. Also, in the data set with AML12 hepatocytes (AML12 hepatocytes), the “ability to increase intracellular NAD+ compared with NR” value is on record as “superior to that of NR” and the “time to significant increases in NAD+ levels after treatment” value is at most 5 min. For the same compound, the “increase in intracellular NAD+ levels at maximal effect” value in the data set with AML12 hepatocytes (NRH around the millimolar range) was “more than 10 fold”. Also, the “fold higher NR concentration needed for similar increases in intracellular NAD+ levels” value with AML12 hepatocytes (NRH at 10 μM vs NR) was determined as 50 fold. Also, the “concentration of maximal effects on NAD+ synthesis” value with AML12 hepatocytes (dose-response) is recorded as “around the millimolar range”. In addition, the “concentration at which NAD+ levels are significantly increased” value in the data set with AML12 hepatocytes (dose-response, AML12 hepatocytes) came to 10 µM. Besides, the “degradation to NAM in FBS supplemented media” value in data set [4] was “did not degrade to NAM”. Moreover, the “intracellular detection of NRH and NMNH” value in data set [5] (5 minutes after treatment) is listed as “could be detected intracellularly”. Besides, the “intracellular NR and NMN” value in data set [5] (after treatment, compared with NR) is “increase in intracellular NR and NMN, greater than that triggered by NR itself”.
